Experimental data as given in patent publication US11104656B2, “Method for purifying and removing color of FDCA” (Nederlandse Organisatie voor …, priority 2017, dated 2021).

How the values were obtained:
Type in all cases: physicochemical
[1] = Solubility of FDCA in water at different temperatures; conditions: water as solvent, temperatures beyond 130° C.
From the text: The inventors realized that it is desirable for FDCA crystallization to use superheating for dissolving FDCA. FDCA may show a significant increase in solubility above superheating conditions. […] The byproduct is colored and its formation is therefore undesirable both in view of purity and color.

[2] = Influence of heating time on decomposition (FDCA in water at 130° C.); conditions: for appearance of solution on heating (decomposition): deionised water
Procedure: In a reaction vessel, 60 mg of FDCA was dissolved over time in 3 ml of deionised water at a temperature of 130° C. On heating, around 5 minutes was needed to allow the solid to dissolve. Following this, samples were taken at 12, 15, 18 and 21 minutes. The samples were photographed at these intervals (FIG. 4).

[3] = Influence of heating time on color of the precipitate after cooling; conditions: 200 mg FDCA in 2 mL H2O, 140-180° C., 5-15 min, prolonged heating
Procedure: In another experiment, the influence of heating time on the color of the precipitate after cooling was investigated. A total of nine samples were prepared by mixing 200 mg of FDCA in 2 mL H2O. [table]

- solubility of FDCA [1]: increases dramatically
- time needed to allow the solid to dissolve ([2]; 60 mg FDCA in 3 ml deionised water): around 5 minutes
- appearance of solution on heating (decomposition) ([2]; after 12 minutes): a light solution is observed
- appearance of solution on heating (decomposition) ([2]; after 18 minutes): clearly darker brown in color
- by-product formation after heating and cooling [3]: formation of black solid by-products
SMILES: O=C(O)c1ccc(C(=O)O)o1 [FDCA, 2,5-furandicarboxylic acid]
- appearance of solution on heating (decomposition) ([2]; after 15 minutes): some black solid by-products started to form
